Laboratory results from ChEMBL document CHEMBL4177565, “Arylamidonaphtalene sulfonate compounds as a novel class of heparanase inhibitors” (Bioorg Med Chem Lett, 2017).
The source made the active and inactive calls. The rule behind the calls is not given here.

What was measured:
U-87 MG = assay: Growth inhibition of human U87MG cells at 2.5 uM after 72 hrs by SRB assay relative to control; assay type: functional, U-87MG ATCC; conditions: read-out: GI
HT-1080 [1] = assay: Growth inhibition of human HT1080 cells at 2.5 uM after 72 hrs by SRB assay relative to control; assay type: functional; conditions: HT-1080, 72 h, read-out: GI
U2OS = assay: Growth inhibition of human U2OS cells at 2.5 uM after 72 hrs by SRB assay relative to control; assay type: functional; conditions: read-out: GI
Heparanase = target: T1, Heparanase (Mus musculus, UniProt Q6YGZ1); assay: Inhibition of mouse B16-BL6 cells derived heparanase using [3H]HS as substrate after 6 hrs by size exclusion chromatography based liquid scintillation counting method
T1 sequence (Q6YGZ1 whole entry): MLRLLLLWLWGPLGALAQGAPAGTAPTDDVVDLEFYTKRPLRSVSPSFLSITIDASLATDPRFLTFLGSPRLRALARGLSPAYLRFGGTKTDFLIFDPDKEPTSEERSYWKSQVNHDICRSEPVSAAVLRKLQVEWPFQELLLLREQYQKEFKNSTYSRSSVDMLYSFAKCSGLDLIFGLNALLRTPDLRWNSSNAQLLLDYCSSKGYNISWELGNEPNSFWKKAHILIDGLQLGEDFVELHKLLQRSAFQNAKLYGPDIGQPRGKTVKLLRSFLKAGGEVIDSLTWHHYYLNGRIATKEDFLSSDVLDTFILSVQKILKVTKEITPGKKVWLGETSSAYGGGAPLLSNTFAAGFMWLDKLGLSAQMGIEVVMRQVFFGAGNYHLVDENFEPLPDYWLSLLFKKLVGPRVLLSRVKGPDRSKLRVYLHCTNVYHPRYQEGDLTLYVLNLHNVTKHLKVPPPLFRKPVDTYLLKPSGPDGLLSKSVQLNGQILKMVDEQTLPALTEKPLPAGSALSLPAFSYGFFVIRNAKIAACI

HT-1080 [2] = assay: Effect on growth factor mRNA expression in human HT1080 cells assessed as FGF2 mRNA level at 2.5 uM after 24 hrs by qPCR method (reference value: 100%); assay type: functional
HT-1080 [3] = assay: Effect on growth factor mRNA expression in human HT1080 cells assessed as VEGF mRNA level at 2.5 uM after 24 hrs by qPCR method (reference value: 100%); assay type: functional
HT-1080 [4] = assay: Effect on growth factor mRNA expression in human HT1080 cells assessed as FGF1 mRNA level at 2.5 uM after 24 hrs by qPCR method (reference value: 100%); assay type: functional
HT-1080 [5] = assay: Effect on MMP9 mRNA expression in human HT1080 cells assessed as MMP9 mRNA level at 2.5 uM after 24 hrs by qPCR method (reference value: 100%); assay type: functional
HT-1080 [6] = assay: Effect on HPSE1 mRNA expression in human HT1080 cells assessed as HPSE1 mRNA level at 2.5 uM after 24 hrs by qPCR method (reference value: 100%); assay type: functional
HT-1080 [7] = assay: Anti-invasive activity against human HT1080 cells at 2.5 uM incubated for 24 hrs measured for 24 hrs by crystal violet staining based inverted microscopic method relative to control; assay type: functional
HT-1080 [8] = conditions: Homo sapiens, 2.5 uM
Description: Inhibition of cell adhesion in human HT1080 cells at 2.5 uM incubated for 18 to 20 hrs by crystal violet staining based assay

SMILES	inhibition of growth at 2.5 µM (U-87 MG)	inhibition of growth at 2.5 µM (HT-1080 [1])	inhibition of growth at 2.5 µM (U2OS)	other results
O=C(Nc1cccc(C(=O)Nc2cc(C(=O)Nc3ccc4c(S(=O)(=O)O)cccc4c3S(=O)(=O)O)n(C3CC3)c2)c1)Nc1cccc(C(=O)Nc2cc(C(=O)Nc3ccc4c(S(=O)(=O)O)cccc4c3S(=O)(=O)O)n(C3CC3)c2)c1	< 50%	< 50%	< 50%	
Cn1cc(NC(=O)c2cc(NC(=O)Nc3cc(C(=O)Nc4cc(C(=O)Nc5ccc6c(S(=O)(=O)O)cccc6c5S(=O)(=O)O)n(C)c4)cc(C(F)(F)F)c3)cc(C(F)(F)F)c2)cc1C(=O)Nc1ccc2c(S(=O)(=O)O)cccc2c1S(=O)(=O)O	< 50%	< 50%	< 50%	
Cc1c(NC(=O)c2cccc(NC(=O)Nc3cccc(C(=O)Nc4cc(C(=O)Nc5ccc6c(S(=O)(=O)O)cccc6c5S(=O)(=O)O)n(C)c4C)c3)c2)cc(C(=O)Nc2ccc3c(S(=O)(=O)O)cccc3c2S(=O)(=O)O)n1C	< 50%	< 50%	< 50%	
Cc1ccc(C(=O)Nc2ccc3c(S(=O)(=O)O)cccc3c2S(=O)(=O)O)cc1NC(=O)c1cc(NC(=O)Nc2cc(C(=O)Nc3cc(C(=O)Nc4ccc5c(S(=O)(=O)O)cccc5c4S(=O)(=O)O)ccc3C)n(C)c2)cn1C	< 50%	< 50%	< 50%	
Cn1cc(NC(=O)c2ccc(F)c(NC(=O)Nc3cc(C(=O)Nc4cc(C(=O)Nc5ccc6c(S(=O)(=O)O)cccc6c5S(=O)(=O)O)n(C)c4)ccc3F)c2)cc1C(=O)Nc1ccc2c(S(=O)(=O)O)cccc2c1S(=O)(=O)O	< 50%	< 50%	< 50%	
Cc1ccc(C(=O)Nc2ccc(S(=O)(=O)O)c3cc(S(=O)(=O)O)cc(S(=O)(=O)O)c23)cc1NC(=O)c1cccc(NC(=O)Nc2cccc(C(=O)Nc3cc(C(=O)Nc4ccc(S(=O)(=O)O)c5cc(S(=O)(=O)O)cc(S(=O)(=O)O)c45)ccc3C)c2)c1 [SURAMIN]				Ki (Heparanase): 48 µM
Cn1cc(NC(=O)c2cccc(NC(=O)Nc3cccc(C(=O)Nc4cc(C(=O)Nc5ccc6c(S(=O)(=O)O)cccc6c5S(=O)(=O)O)n(C)c4)c3)c2)cc1C(=O)Nc1ccc2c(S(=O)(=O)O)cccc2c1S(=O)(=O)O	< 50%	< 50%	< 50%	
Cn1cc(NC(=O)Nc2cc(C(=O)Nc3cc(C(=O)Nc4ccc5c(S(=O)(=O)[O-])cccc5c4S(=O)(=O)[O-])n(C)c3)n(C)c2)cc1C(=O)Nc1cc(C(=O)Nc2ccc3c(S(=O)(=O)[O-])cccc3c2S(=O)(=O)[O-])n(C)c1.[Na+].[Na+].[Na+].[Na+]				Activity (HT-1080 [2]): 86%; Activity (HT-1080 [3]): 100%; Activity (HT-1080 [4]): 44%; Activity (HT-1080 [5]): 100%; Activity (HT-1080 [6]): 1%
Cn1cc(NC(=O)Nc2cc(C(=O)Nc3cccc(C(=O)Nc4ccc5c(S(=O)(=O)[O-])cccc5c4S(=O)(=O)[O-])c3)n(C)c2)cc1C(=O)Nc1cccc(C(=O)Nc2ccc3c(S(=O)(=O)[O-])cccc3c2S(=O)(=O)[O-])c1.[Na+].[Na+].[Na+].[Na+]	< 50%	< 50%	< 50%	Activity (HT-1080 [2]): 98%; Activity (HT-1080 [3]): 85%; Activity (HT-1080 [4]): 87%; Activity (HT-1080 [7]): >90%; Activity (HT-1080 [5]): 80%; inhibition (HT-1080 [8]): Active; Activity (HT-1080 [6]): 4%
